Values joined by “and” are separate entries in the source; they are usually repeats but may differ in a detail not shown here. Equal entries are not always repeated. Toxic doses and inconclusive results are not listed. No stated cut-off is given here; in the data, active means T/C of 150% or more; inactive means T/C below 125%.
Test system: L1210 leukemia ip in BDF1 mice, survival T/C
Experiment: NCI In Vivo Anticancer Drug Screen. Data for tumor model L1210 Leukemia (intraperitoneal) in B6D2F1 (BDF1) mice
Conditions: endpoint: mean survival time, higher = longer survival
Procedure, shortened: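 Tumor was transplanted into mice, which were then dosed with test compound or vehicle alone. Survival was recorded for each group, and the treated figure was expressed relative to the control figure.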

Measured: T/C

COc1cccc(CCNC(=O)CCC#N)c1
inactive: dose: 75.0 mg/kg/injection, schedule: Q01DX009 (ip), vehicle: saline 112 % of control | dose: 100.0 mg/kg/injection, schedule: Q04DX003 (ip), vehicle: Klucel (hydroxypropylcellulose) (HPC) 97 % of control | dose: 150.0 mg/kg/injection, schedule: Q01DX009 (ip), vehicle: saline 93 % of control | dose: 200.0 mg/kg/injection, schedule: Q04DX003 (ip), vehicle: Klucel (hydroxypropylcellulose) (HPC) 87 % of control | dose: 300.0 mg/kg/injection, schedule: Q01DX009 (ip), vehicle: saline 100 % of control | dose: 400.0 mg/kg/injection, schedule: Q04DX003 (ip), vehicle: Klucel (hydroxypropylcellulose) (HPC) 90 % of control

CN(C)CCCN1Cc2ccccc2C1
inactive: dose: 44.0 mg/kg/injection, schedule: Q01DX Z (ip), vehicle: saline 96 % of control | dose: 66.0 mg/kg/injection, schedule: Q01DX Z (ip), vehicle: saline 100 % of control | dose: 100.0 mg/kg/injection, schedule: Q01DX Z (ip), vehicle: saline 102 % of control

O=C1CCCC(=S)N1
inactive: dose: 50.0 mg/kg/injection, schedule: Q01DX001 (ip), vehicle: carboxymethylcellulose (CMC) 113 % of control | dose: 100.0 mg/kg/injection, schedule: Q01DX001 (ip), vehicle: carboxymethylcellulose (CMC) 106 % of control

O=C(O)c1cccc([N+](=O)[O-])c1I
inactive: dose: 100.0 mg/kg/injection, schedule: Q01DX009 (ip), vehicle: saline with Tween-80 100 % of control | dose: 200.0 mg/kg/injection, schedule: Q01DX009 (ip), vehicle: saline with Tween-80 101 % of control | dose: 400.0 mg/kg/injection, schedule: Q01DX009 (ip), vehicle: saline with Tween-80 97 % of control

CN(C)C(=O)Nc1cccc(OC(=O)NC2CCCC2)c1
inactive: dose: 100.0 mg/kg/injection, schedule: Q04DX003 (ip), vehicle: saline with Tween-80 100 % of control | dose: 200.0 mg/kg/injection, schedule: Q04DX003 (ip), vehicle: saline with Tween-80 95 % of control | dose: 400.0 mg/kg/injection, schedule: Q04DX003 (ip), vehicle: saline with Tween-80 100 % of control

C=COCCCCCCCCCCCCCCCCCC
inactive: dose: 100.0 mg/kg/injection, schedule: Q01DX001 (ip), vehicle: other 95 % of control | dose: 200.0 mg/kg/injection, schedule: Q01DX001 (ip), vehicle: other 95 % of control | dose: 400.0 mg/kg/injection, schedule: Q01DX001 (ip), vehicle: other 96 % of control

CC1=C(/C=C/C(C)=C/C=C/C(C)=C/C=O)C(C)(C)CCC1
inactive: dose: 50.0 mg/kg/injection, schedule: Q01DX009 (ip), vehicle: steriod suspending solution 89 % of control and 95 % of control | dose: 100.0 mg/kg/injection, schedule: Q01DX009 (ip), vehicle: steriod suspending solution 92 % of control | dose: 200.0 mg/kg/injection, schedule: Q01DX001 (sc), vehicle: steriod suspending solution 96 % of control and 95 % of control | dose: 400.0 mg/kg/injection, schedule: Q01DX001 (sc), vehicle: steriod suspending solution 96 % of control

Cc1ccccc1[P+](Cc1ccccc1)(c1ccccc1C)c1ccccc1C
inactive: dose: 15.0 mg/kg/injection, schedule: Q01DX001 (ip), vehicle: carboxymethylcellulose (CMC) 96 % of control | dose: 30.0 mg/kg/injection, schedule: Q01DX001 (ip), vehicle: carboxymethylcellulose (CMC) 94 % of control | dose: 60.0 mg/kg/injection, schedule: Q01DX001 (ip), vehicle: carboxymethylcellulose (CMC) 94 % of control

CC(NC(=O)c1ccccc1)C(=O)Nc1ccccc1 (stereo not given)
inactive: dose: 100.0 mg/kg/injection, schedule: Q04DX002 (ip), vehicle: Klucel (hydroxypropylcellulose) (HPC) 101 % of control | dose: 200.0 mg/kg/injection, schedule: Q04DX002 (ip), vehicle: Klucel (hydroxypropylcellulose) (HPC) 114 % of control | dose: 400.0 mg/kg/injection, schedule: Q04DX002 (ip), vehicle: Klucel (hydroxypropylcellulose) (HPC) 108 % of control

— PubChem BioAssay AID248 (DTP/NCI, 2004)
